Source: patent US11820747B2, “PPARG inverse agonists and uses thereof” (Flare Therapeutics Inc., priority 2021, dated 2023)

How the values were obtained:
[1] = target: T1, PPARG/RXRA LBD heterodimer (Homo sapiens, UniProt P37231); test: PPARγ-NCOR1 recruitment assay (TR-FRET, biotinylated NCOR1 ID2 peptide); format: binding; conditions: for Emax: 3 h, maximal extent, T0070907 defined as 100%, DMSO 0%, read-out: % NCOR recruitment relative to T907; for EC50: TR-FRET, 80 nM Rosiglitazone, 3 hours incubation, read-out: PPARG-NCOR recruitment assay EC50
T1 construct: His-TEV-Q203-Y477: Uniprot ID P37231-2; made in house; host or cells: E. coli
Protocol: PPARγ-NCOR1 Recruitment Assay:
Compound potency (EC50) and maximal extent of NCOR1 recruitment to PPARG were assessed a TR-FRET binding assay measuring association of a biotinylated NCOR1 ID2 peptide (Biotin-[…]-amide) to PPARG/RXRA LBD heterodimer. Specifically, a 20 microliters of TR-FRET master mix consisting of 2 nM WT PPARG LBD (E. coli expressed, His-TEV-Q203-Y477: Uniprot ID P37231-2), 2 nM WT RXRA LBD or mutant S427F RXRA LBD (E. coli expressed, Flag-TEV-E228-T462; […]. Mixtures were incubated for 3 hours and read in an EnVision plate reader (Perkin Elmer) with […]. To determine the potency (EC50) and extent of NCOR1 recruitment, TR-FRET ratios were normalized to the average ratio of DMSO control wells (0%) and to the average maximum ratio for positive control compound (T0070907 (2-chloro-5-nitro-N-4-pyridinyl-benzamide); defined as 100%) in CDD Vault and analyzed using the Levenberg-Marquardt algorithm.
T1 sequence (O75376 2251-2273 partner, one chain of several): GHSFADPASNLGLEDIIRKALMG

[2] = target: T2, PPARG/RXRA LBD heterodimer (Homo sapiens, UniProt P37231); test: PPARγ-MED1 blockade assay (TR-FRET, biotinylated MED1 LxxLL peptide); format: binding; conditions: for Emax: 3 h, maximal extent, GW9662 defined as 100%, DMSO 0%, read-out: % MED1 blockade relative to GW9662; for EC50: TR-FRET, 80 nM Rosiglitazone, 3 hours incubation
T2 construct: His-TEV-Q203-Y477; Uniprot ID P37231-2; made in house; host or cells: E. coli
T2 sequence (P37231 203-477 isoform P37231-2): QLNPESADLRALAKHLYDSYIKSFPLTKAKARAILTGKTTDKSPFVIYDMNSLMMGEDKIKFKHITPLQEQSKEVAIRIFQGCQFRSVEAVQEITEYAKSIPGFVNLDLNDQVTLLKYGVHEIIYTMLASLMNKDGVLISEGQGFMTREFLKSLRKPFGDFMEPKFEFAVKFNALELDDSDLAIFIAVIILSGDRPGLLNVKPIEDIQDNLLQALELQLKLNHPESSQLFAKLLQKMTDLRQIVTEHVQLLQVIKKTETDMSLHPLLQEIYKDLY
T2 sequence (P19793 228-462 partner limits assumed): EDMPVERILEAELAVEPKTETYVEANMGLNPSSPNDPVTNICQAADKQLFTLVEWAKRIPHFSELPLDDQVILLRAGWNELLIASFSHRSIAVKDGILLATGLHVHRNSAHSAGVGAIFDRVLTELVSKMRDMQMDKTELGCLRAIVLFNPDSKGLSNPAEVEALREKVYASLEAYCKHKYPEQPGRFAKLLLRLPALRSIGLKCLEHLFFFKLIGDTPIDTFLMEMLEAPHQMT
Protocol: PPARγ-MED1 Blockade Assay:
Compound potency (ICs) and maximal extent of MED1 repulsion to PPARG were assessed a TR-FRET binding assay measuring association of a biotinylated MED1 LxxLL peptide (Biotin-[…]-amide) to PPARG/RXRA LBD heterodimer. Specifically, a 20 microliters of TR-FRET master mix consisting of 2 nM WT PPARG LBD (E. coli expressed, His-TEV-Q203-Y477; Uniprot ID P37231-2), 2 nM WT RXRA LBD (E. coli expressed, Flag-TEV-E228-T462; […]. Mixtures were incubated for 3 hours and read in an EnVision plate reader (Perkin Elmer) with […]. To determine the potency (ICso) and extent of MED1 repulsion. TR-FRET ratios were normalized to the average ratio of DMSO control wells (0%) and to the average minimum ratio for positive control compound (GW9662 (2-chloro-5-nitrobenzanilide); defined as 100%/6) in CDD Vault and analyzed using the Levenberg-Marquardt algorithm.

[3] = tested on: ANGPTL4, a PPARG target gene, in HT1197 (RXRA S427F mutation) cells; test: Bladder cancer pharmacodynamic assay, HT1197 cell assay (quantitative PCR of PPARG target genes); format: cell-based; conditions: Homo sapiens; for inhibition at 0.1 µM: 100 nM compound, 24 hours, percentage of a DMSO control; for EC50: 24 hours treatment, qPCR
Protocol: Bladder Cancer Pharmacodynamic Assay
5637 (PPARG amplified) and HT1197 (RXRA S427F mutation) cells were used for assessment of modulation of PPARG target genes using quantitative PCR. Cells were treated for 24 hours with PPARG inverse agonists prior to analysis of FABP4 (IDT, Cat: Hs.PT 58.20106818) and ANGPTL4 (IDT, Cat: Hs.PT 58.25480012) expression, with expression of the housekeeping gene TBP (IDT, Cat: Hs.PT 58v.39858774) used to normalize expression across samples. Quantitative PCR was performed using an ABI QuantStudio 7 Flex Reaction system. Data were analyzed and reported relative to DMSO control using the comparative Ct method (ΔΔCt).

| Compound | Emax [1] [%] | EC50 [1] [nM] | Emax [2] [%] | EC50 [2] [nM] | inhibition at 0.1 µM [3] [%] | EC50 [3] [nM] |
| --- | --- | --- | --- | --- | --- | --- |
| Cn1cc(-c2c(F)cc3[nH]c(-c4cc(C#N)ccc4S(C)(=O)=O)cc(=O)c3c2F)cn1 [Example 14] | > 100 | 10 to 100 | > 100 | 10 to 100 | 89 | – |
| CC(C)CS(=O)(=O)c1ccc(C#N)cc1-c1cc(=O)c2c(F)cc(F)cc2[nH]1 [Example 13, 3-5,7-difluoro-4-oxo-1,4-dihydroquinolin-2-yl-4-(isobutylsulfonyl)benzonitrile] | < 100 | 1000 to 10000 | < 100 | 1000 to 10000 | 77 | – |
| CS(=O)(=O)c1ccc(C#N)cc1-c1cc(=O)c2c(F)cc(F)cc2[nH]1 [Example 1, 3-(5,7-difluoro-4-oxo-1,4-dihydroquinolin-2-yl)-4-(methylsulfonyl)benzonitrile] | > 100 | 100 to 1000 | > 100 | 100 to 1000 | 88 | 1.3 |
| CSc1ccc(C#N)cc1-c1cc(=O)c2c(F)cc(F)cc2[nH]1 [Example 6, 3-(5,7-difluoro-4-oxo-1,4-dihydroquinolin-2-yl)-4-(methylthio)benzonitrile] | – | > 10000 | – | > 10000 | 17 | – |
| Cc1ccc(-c2c(F)cc3[nH]c(-c4cc(C#N)ccc4S(C)(=O)=O)cc(=O)c3c2F)cn1 [Example 15, 3-(5,7-difluoro-6-(6-methylpyridin-3-yl)-4-oxo-1,4-dihydroquinolin-2-yl)-4-(methylsulfonyl)benzonitrile] | > 100 | 10 to 100 | > 100 | 10 to 100 | 68 | – |
| CS(=O)(=O)c1ccc(C#N)cc1-c1cc(=O)c2c(F)cc(Cl)cc2[nH]1 [Example 10] | > 100 | 10 to 100 | > 100 | 10 to 100 | 89 | 1.6 |
| CCS(=O)(=O)c1ccc(C#N)cc1-c1cc(=O)c2c(F)cc(F)cc2[nH]1 [Example 2, 3-(5,7-difluoro-4-oxo-1,4-dihydroquinolin-2-yl)-4-(ethylsulfonyl)-benzonitrile] | > 100 | 100 to 1000 | > 100 | 100 to 1000 | 86 | – |
| CS(=N)(=O)c1ccc(C#N)cc1-c1cc(=O)c2c(F)cc(F)cc2[nH]1 (centres unmarked) [Example 8, 3-(5,7-difluoro-4-oxo-1,4-dihydroquinolin-2-yl)-4-(S-methylsulfonimidoyl)benzonitrile] | > 100 | 100 to 1000 | > 100 | 100 to 1000 | 84 | – |
| CC(C)S(=O)(=O)c1ccc(C#N)cc1-c1cc(=O)c2c(F)cc(F)cc2[nH]1 [Example 12, 3-(5,7-difluoro-4-oxo-1,4-dihydroquinolin-2-yl)-4-(isopropylsulfonyl)benzonitrile] | < 100 | > 10000 | < 100 | > 10000 | 67 | – |
| CS(=O)(=O)c1ccc(C#N)cc1-c1cc(=O)c2ccc(Cl)cc2[nH]1 [Example 9, 3-(7-chloro-4-oxo-1,4-dihydroquinolin-2-yl)-4-(methylsulfonyl)benzonitrile] | > 100 | 10 to 100 | > 100 | 10 to 100 | 85 | 0.9 |
| N#Cc1ccc(S(=O)(=O)C(F)(F)F)c(-c2cc(=O)c3c(F)cc(F)cc3[nH]2)c1 [Example 11] | > 100 | < 10 | > 100 | < 10 | 88 | 0.07 |
| CN1CCN(c2c(F)cc3[nH]c(-c4cc(C#N)ccc4S(C)(=O)=O)cc(=O)c3c2F)CC1 [Example 3, 3-(5,7-difluoro-6-(4-methylpiperazin-1-yl)-4-oxo-1,4-dihydroquinolin-2-yl)-4-(methylsulfonyl)-benzonitrile] | > 100 | 100 to 1000 | > 100 | 100 to 1000 | 66 | – |
| C[S+]([O-])c1ccc(C#N)cc1-c1cc(=O)c2c(F)cc(F)cc2[nH]1 (centres unmarked) [Example 7, 3-(5,7-difluoro-4-oxo-1,4-dihydroquinolin-2-yl)-4-(methylsulfinyl)benzonitrile] | > 100 | 1000 to 10000 | > 100 | > 10000 | 26 | – |
| N#Cc1ccc([S+]([O-])CC(F)(F)F)c(-c2cc(=O)c3c(F)cc(F)cc3[nH]2)c1 (centres unmarked) [Example 5] | > 100 | 1000 to 10000 | > 100 | 1000 to 10000 | 15 | – |
| N#Cc1ccc(S(=O)(=O)CC(F)(F)F)c(-c2cc(=O)c3c(F)cc(F)cc3[nH]2)c1 [Example 4, 3-(5,7-difluoro-4-oxo-1,4-dihydroquinolin-2-yl)-4-((2,2,2-trifluoroethyl)sulfonyl)-benzonitrile] | > 100 | 100 to 1000 | > 100 | 100 to 1000 | 14 | – |
